Test results as given in PMC8887894, “Pyruvate:ferredoxin oxidoreductase and low abundant ferredoxins support aerobic photomixotrophic growth in cyanobacteria” (eLife, 2022).

Target: T1, SynLPD (dihydrolipoyl dehydrogenase, E3 subunit of the PDH complex) (Synechocystis sp. PCC 6803, UniProt P72740)
T1 construct: gene lpdA
T1 sequence (P72740 2-474): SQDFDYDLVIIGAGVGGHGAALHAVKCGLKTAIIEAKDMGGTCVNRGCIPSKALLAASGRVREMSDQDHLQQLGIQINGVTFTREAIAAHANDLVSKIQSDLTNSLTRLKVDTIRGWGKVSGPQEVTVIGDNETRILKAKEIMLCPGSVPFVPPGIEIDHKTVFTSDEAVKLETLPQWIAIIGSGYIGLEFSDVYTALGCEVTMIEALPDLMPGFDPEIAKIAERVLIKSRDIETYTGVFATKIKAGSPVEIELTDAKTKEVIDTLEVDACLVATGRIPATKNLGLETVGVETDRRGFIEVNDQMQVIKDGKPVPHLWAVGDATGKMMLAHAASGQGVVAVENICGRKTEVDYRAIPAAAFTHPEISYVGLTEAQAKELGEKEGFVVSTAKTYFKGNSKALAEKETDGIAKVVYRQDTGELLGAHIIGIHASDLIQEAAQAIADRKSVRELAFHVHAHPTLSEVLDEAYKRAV
Test: NAD+ reduction at […] nm; Ki from slopes of Lineweaver-Burk plots
Assay type: biochemical

NC(=O)C1=CN([C@@H]2O[C@H](COP(=O)(O)OP(=O)(O)OC[C@H]3O[C@@H](n4cnc5c(N)ncnc54)[C@H](O)[C@@H]3O)[C@@H](O)[C@H]2O)C=CC1 [NADH]
Ki: 38.3 µM
